This is an account of results in patent US8241863B2, “Identification of an evolutionarily conserved pathway mediating transrepression of inflammatory response genes by nuclear receptors” (The Regents of the University of California, priority 2005, dated 2012).

For test [1], the target named is T1, PPARγ (Mus musculus, UniProt P37238).
T1 construct: expressed in transfected cells; host or cells: RAW264.7 mouse macrophage cell line
T1 sequence (P37238 1-475 isoform P37238-2): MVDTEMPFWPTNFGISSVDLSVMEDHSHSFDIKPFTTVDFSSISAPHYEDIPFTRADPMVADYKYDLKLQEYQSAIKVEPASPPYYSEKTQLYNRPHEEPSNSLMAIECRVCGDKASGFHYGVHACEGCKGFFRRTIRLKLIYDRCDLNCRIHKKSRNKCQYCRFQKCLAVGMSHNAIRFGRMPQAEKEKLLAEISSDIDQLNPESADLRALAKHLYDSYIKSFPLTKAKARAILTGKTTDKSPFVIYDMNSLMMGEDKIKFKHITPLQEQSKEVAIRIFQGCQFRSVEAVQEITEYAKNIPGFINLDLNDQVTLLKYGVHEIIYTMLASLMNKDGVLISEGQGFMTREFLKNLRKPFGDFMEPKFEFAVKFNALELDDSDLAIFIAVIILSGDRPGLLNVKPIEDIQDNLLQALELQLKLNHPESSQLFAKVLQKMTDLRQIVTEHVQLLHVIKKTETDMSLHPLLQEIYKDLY
Briefly: Transactivation assay on positively regulated PPARγ-dependent promoter (Aox-TK luciferase) in RAW264.7 cells. Format: cell-based. The method, then:
The RAW264.7 mouse macrophage cell line was transiently transfected with plasmids containing the iNOS or Aox-TK promoters directing luciferase expression as previously described 22. For transrepression experiments, wild-type PPARγ or PPARγ mutants were transfected at a 3:1 ratio to reporter plasmids using Superfect reagent (Qiagen). For siRNA experiments, RAW264.7 cells were transfected with siRNAs (40 nM) using Superfect reagent for 48 h prior to activation with PPARγ ligands and LPS induction. […] Transfection experiments evaluated each experimental condition in triplicate and results were expressed as mean +/− standard deviation. Each transfection experiment was independently repeated at least three times. Statistical analysis was preformed using Student's t-test with P<0.01 considered statistically significant.
In FIG. 5b, in vivo detection of SUMOylation of PPARγ was performed in HeLa cells transfected with myc-tagged Sumo1 and HA-tagged WT-PPARγ or PPARγ^K365R. Cells were immunoprecipitated for HA tag and blotted for myc tag. NT refers to non-transfected cells. In FIG. 5c, RAW264.7 cells were transfected with wild-type (WT) and mutant HA-PPARγ and Flag(FL)-tagged PIAS1 expression plasmids and treated with Ro for 0, 10, 30 or 60 min. Whole cell extracts were immunoprecipitated for HA tag followed by western blotting for FL-PIAS1. […]

The subject of test [2] is iNOS promoter. Briefly: iNOS-luciferase reporter transrepression in RAW264.7 cells transfected with PPARγ. It counts as cell-based, mouse.
From the text: For transrepression experiments, wild-type PPARγ or PPARγ mutants were transfected at a 3:1 ratio to reporter plasmids using Superfect reagent (Qiagen). […] Transfection experiments evaluated each experimental condition in triplicate and results were expressed as mean +/− standard deviation. Each transfection experiment was independently repeated at least three times. Statistical analysis was preformed using Student's t-test with P<0.01 considered statistically significant.
In FIG. 1b, RAW264.7 cells were transfected with the indicated siRNAs and PPARγ expression and iNOS-luciferase reporter plasmids. Cells were treated with LPS and/or Ro as in panel a prior to assay of luciferase activity. […] In FIG. 1d, RAW264.7 cells were transfected with the indicated siRNAs and PPARγ expression and iNOS-luciferase reporter plasmids. Cells were treated with LPS and/or Ro as in FIG. 1a, prior to assay of luciferase activity. […] In FIG. 1f, RAW264.7 cells were transfected with the indicated siRNAs and PPARγ expression and iNOS-luciferase reporter plasmids and stimulated with LPS for 6 h prior to assay of luciferase activity.
In FIG. 4a, RAW264.7 cells were transfected with the iNOS reporter, PPARγ expression plasmid and Ubc9-siRNA. 36 h post-transfection cells were pretreated with Ro for 1 h and LPS for 6 h prior to assay of luciferase activity. […]
Test [3] has as its system PPARγ-sensitive genes. Briefly: Microarray of primary macrophages transfected with control or NCoR siRNA. Format: cell-based. As to conditions: NCoR siRNA vs control siRNA. The method, then: To determine how widely the SUMOylation/NCoR-dependent pathway is utilized by PPARγ to repress inflammatory response genes, microarray studies were performed in primary macrophages transfected with control siRNAs or siRNAs directed against NCoR mRNA.

On to `CN(CCOc1ccc(C[C@H](Nc2ccccc2C(=O)c2ccccc2)C(=O)O)cc1)c1ccccn1` [GW1929], for which the transactivation activity entry in test [1] is “strong transactivation activity”. For the same molecule, in test [2], the “repression of LPS induced iNOS promoter activity” value was “very weak repressor”.

For `CN(CCOc1ccc(CC2SC(=O)NC2=O)cc1)c1ccccn1` (stereo not drawn) [rosiglitazone], the “PPARγ-sensitive genes whose repression by ligand was abolished by knockdown of NCoR” value in test [3] is reported as 80%.
